# Test results: patent publication US20240269139A1, “COMPOUNDS FOR TARGETED PROTEIN DEGRADATION OF KINASES” (DANA-FARBER CANCER INSTITUTE, INC., priority 2020, published 2024)
# Read-outs that look alike come from different tables or passages of the source.
# Columns and labels:
# [1] = target: T1, extended human kinome (kinase-like proteins) (Homo sapiens, UniProt P54886); experiment: Whole cell quantitative proteomics: extended kinome hits; conditions: Accession P54886
# T1 sequence (P54886 1-795): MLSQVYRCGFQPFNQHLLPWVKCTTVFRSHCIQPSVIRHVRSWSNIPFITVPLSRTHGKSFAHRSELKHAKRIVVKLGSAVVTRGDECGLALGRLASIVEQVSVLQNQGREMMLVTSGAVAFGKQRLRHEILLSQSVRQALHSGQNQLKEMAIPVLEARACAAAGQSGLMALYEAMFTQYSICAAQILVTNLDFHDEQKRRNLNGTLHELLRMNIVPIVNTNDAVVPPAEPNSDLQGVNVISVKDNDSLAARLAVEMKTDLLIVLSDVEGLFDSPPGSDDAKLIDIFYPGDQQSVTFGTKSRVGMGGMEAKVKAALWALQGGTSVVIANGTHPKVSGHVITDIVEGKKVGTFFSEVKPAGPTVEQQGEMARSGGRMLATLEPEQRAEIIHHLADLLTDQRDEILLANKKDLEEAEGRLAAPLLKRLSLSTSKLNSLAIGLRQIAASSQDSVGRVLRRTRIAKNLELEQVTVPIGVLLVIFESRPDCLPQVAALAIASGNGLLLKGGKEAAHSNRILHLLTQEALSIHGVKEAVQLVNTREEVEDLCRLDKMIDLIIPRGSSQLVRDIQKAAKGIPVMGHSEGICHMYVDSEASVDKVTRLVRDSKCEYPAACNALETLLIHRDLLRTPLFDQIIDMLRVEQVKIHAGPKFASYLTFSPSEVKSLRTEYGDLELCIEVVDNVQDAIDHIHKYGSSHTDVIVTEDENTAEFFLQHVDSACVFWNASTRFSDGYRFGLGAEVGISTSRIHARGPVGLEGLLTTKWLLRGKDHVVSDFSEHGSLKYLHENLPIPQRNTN
# [2] = target: T2, protein kinases (human kinome) (Homo sapiens, UniProt Q9NYY8); type: cell-based; conditions: direction down
# T2 sequence (Q9NYY8 1-710): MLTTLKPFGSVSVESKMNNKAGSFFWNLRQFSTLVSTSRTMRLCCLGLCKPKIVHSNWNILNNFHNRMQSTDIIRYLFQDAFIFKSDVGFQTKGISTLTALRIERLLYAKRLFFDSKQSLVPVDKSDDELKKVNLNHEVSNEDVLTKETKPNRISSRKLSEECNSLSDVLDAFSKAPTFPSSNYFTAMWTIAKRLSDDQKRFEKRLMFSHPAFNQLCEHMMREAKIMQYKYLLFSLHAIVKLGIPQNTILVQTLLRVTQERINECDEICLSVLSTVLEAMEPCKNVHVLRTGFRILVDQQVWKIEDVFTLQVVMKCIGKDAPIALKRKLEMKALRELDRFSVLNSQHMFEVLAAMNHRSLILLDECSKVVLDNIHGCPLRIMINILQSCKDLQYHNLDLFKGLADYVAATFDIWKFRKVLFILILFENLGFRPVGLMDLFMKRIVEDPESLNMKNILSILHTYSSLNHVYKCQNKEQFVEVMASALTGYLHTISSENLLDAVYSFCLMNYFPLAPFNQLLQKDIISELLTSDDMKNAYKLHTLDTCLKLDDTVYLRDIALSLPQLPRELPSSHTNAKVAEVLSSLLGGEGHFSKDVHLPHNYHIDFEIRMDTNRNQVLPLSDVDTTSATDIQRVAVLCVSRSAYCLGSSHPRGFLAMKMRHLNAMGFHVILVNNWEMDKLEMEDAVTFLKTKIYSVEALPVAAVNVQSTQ
# [3] = target: protein kinases (human kinome) (Homo sapiens, UniProt P11802); type: cell-based
# Sequence of protein kinases (human kinome) (Homo sapiens, UniProt P11802) (P11802 whole entry): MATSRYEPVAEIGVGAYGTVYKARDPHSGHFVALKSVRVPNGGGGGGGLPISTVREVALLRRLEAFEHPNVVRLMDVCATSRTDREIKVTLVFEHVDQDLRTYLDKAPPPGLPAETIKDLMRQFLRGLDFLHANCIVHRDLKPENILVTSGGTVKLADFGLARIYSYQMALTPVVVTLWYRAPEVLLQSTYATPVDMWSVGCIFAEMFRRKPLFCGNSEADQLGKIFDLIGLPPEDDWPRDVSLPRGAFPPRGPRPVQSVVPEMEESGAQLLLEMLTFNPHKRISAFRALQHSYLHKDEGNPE
# [4] = target: protein kinases (human kinome) (Homo sapiens, UniProt Q2M2I8); type: cell-based
# Sequence of protein kinases (human kinome) (Homo sapiens, UniProt Q2M2I8) (Q2M2I8 whole entry): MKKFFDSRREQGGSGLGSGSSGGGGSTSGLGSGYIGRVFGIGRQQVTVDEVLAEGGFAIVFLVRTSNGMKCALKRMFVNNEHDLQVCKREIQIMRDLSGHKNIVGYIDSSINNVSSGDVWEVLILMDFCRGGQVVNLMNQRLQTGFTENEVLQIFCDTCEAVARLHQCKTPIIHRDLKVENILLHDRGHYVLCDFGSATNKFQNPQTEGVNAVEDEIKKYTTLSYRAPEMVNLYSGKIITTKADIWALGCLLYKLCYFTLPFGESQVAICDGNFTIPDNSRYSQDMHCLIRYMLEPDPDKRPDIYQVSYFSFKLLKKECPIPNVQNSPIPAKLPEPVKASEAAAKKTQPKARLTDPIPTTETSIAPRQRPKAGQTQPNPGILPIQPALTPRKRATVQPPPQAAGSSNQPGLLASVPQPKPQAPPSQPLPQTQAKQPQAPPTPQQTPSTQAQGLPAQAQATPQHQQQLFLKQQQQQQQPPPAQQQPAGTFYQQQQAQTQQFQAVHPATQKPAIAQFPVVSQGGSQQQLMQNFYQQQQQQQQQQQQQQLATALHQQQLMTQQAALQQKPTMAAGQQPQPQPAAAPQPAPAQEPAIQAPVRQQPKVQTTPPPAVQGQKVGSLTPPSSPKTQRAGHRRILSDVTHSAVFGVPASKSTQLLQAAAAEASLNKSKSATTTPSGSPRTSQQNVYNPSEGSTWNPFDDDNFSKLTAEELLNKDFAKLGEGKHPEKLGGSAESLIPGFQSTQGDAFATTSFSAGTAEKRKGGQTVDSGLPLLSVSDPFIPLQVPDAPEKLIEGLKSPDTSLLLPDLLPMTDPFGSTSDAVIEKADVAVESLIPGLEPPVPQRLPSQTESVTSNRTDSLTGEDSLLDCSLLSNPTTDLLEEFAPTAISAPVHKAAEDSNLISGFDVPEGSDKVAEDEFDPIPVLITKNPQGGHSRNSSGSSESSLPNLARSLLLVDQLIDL
# [5] = target: protein kinases (human kinome) (Homo sapiens, UniProt P30291); type: cell-based; conditions: for logFC of WEE1: WEE1 P30291-1
# Sequence of protein kinases (human kinome) (Homo sapiens, UniProt P30291) (P30291 whole entry): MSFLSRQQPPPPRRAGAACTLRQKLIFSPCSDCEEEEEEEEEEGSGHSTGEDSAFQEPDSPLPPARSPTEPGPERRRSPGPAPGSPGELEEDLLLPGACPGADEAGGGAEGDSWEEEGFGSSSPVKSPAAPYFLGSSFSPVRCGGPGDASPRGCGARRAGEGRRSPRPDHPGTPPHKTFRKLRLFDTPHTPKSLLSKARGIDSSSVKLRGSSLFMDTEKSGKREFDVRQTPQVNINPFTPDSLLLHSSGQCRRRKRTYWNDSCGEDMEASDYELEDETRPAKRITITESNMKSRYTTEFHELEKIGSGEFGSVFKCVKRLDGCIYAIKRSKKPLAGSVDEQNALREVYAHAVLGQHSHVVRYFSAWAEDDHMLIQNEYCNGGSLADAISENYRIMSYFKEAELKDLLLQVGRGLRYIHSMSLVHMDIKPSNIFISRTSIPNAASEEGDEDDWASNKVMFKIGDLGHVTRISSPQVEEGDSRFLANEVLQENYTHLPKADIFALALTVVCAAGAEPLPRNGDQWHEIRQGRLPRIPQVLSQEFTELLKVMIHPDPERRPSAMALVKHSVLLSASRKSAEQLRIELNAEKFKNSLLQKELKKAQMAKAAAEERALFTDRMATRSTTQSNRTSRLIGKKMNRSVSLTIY
# [6] = target: protein kinases (human kinome) (Homo sapiens, UniProt Q8TDR2); type: cell-based
# Sequence of protein kinases (human kinome) (Homo sapiens, UniProt Q8TDR2) (Q8TDR2 whole entry): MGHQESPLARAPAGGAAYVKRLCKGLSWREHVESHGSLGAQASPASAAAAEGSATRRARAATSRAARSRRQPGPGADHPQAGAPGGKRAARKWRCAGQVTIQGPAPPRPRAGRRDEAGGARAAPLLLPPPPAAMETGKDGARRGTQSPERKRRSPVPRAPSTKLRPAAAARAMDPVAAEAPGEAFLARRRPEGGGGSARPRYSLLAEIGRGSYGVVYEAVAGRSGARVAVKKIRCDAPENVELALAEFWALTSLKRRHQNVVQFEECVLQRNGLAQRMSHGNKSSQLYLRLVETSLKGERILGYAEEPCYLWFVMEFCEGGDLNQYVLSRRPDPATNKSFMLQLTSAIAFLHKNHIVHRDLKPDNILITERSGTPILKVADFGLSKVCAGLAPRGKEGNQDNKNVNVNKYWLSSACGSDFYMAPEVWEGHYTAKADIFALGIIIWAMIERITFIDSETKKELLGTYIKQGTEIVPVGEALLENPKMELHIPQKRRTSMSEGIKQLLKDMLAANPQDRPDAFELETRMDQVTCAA
# [7] = target: protein kinases (human kinome) (Homo sapiens, UniProt Q00534); type: cell-based; conditions: for logFC CDK6: CDK6 (Q00534), direction down; for logFC of CDK6 (Q00534): down
# Sequence of protein kinases (human kinome) (Homo sapiens, UniProt Q00534) (Q00534 whole entry): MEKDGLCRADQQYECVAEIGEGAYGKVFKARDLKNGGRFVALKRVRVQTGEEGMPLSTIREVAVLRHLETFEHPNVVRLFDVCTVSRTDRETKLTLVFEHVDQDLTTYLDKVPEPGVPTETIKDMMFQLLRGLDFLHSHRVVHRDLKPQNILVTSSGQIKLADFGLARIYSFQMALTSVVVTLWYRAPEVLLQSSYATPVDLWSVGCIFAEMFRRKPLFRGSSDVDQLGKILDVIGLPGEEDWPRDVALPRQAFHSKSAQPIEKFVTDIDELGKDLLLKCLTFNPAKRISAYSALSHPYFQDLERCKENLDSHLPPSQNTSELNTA
smiles,measurement,setting,value
CC(C)(C)c1nc(-c2cccc(NS(=O)(=O)c3c(F)cccc3F)c2F)c(-c2ccnc(NCCOCCNC(=O)CCOCCOCCNc3cccc4c3CN(C3CCC(=O)NC3=O)C4=O)n2)s1 (stereo not shown) [DD.03.107],logFC ALDH18A1,"[1]; experiment wp147, 1 uM",−0.6536
same,logFC ALDH18A1,"[1]; experiment wp147, 2 uM",−0.7374
same,logFC ALDH18A1,"[1]; experiment wp147, 4 uM",−1.326
same,logFC FASTKD2 (Q9NYY8),"[2]; Experiment wp147, 1 uM",−0.7236
same,logFC FASTKD2 (Q9NYY8),"[2]; Experiment wp147, 2 uM",−0.6784
same,logFC FASTKD2 (Q9NYY8),"[2]; Experiment wp147, 4 uM",−1.273
O=C(COc1cccc2c1C(=O)N(C1CCC(=O)NC1=O)C2=O)NCCCCCCCC(=O)NC1(c2ccc(-c3nc4ccn5c(=O)[nH]nc5c4cc3-c3ccccc3)cc2)CCC1 (stereo not shown) [INY.01.140.1],logFC ALDH18A1,[1]; experiment wp081,−0.4491
same,logFC FASTKD2 (Q9NYY8),[2]; Experiment wp081,−0.4053
C[C@@H]1C[C@@H](O)c2ncnc(N3CCN(C(=O)[C@H](CNCCCCCCCCCCc4cccc5c4C(=O)N(C4CCC(=O)NC4=O)C5=O)c4ccc(Cl)cc4)CC3)c21 (stereo partly shown) [INY.03.041.01],logFC ALDH18A1,[1]; experiment wp118,−0.376
same,logFC FASTKD2 (Q9NYY8),[2]; Experiment wp118,−0.4539
same,logFC CDK4 (P11802),[3]; experiment wp118,−0.4019
Cc1cnc(Nc2ccc(N3CCN(CCOCCOCCNC(=O)COc4cccc5c4C(=O)N(C4CCC(=O)NC4=O)C5=O)CC3)cc2)nc1Nc1cccc(S(=O)(=O)NC(C)(C)C)c1 (stereo not shown) [JWG.118],logFC ALDH18A1,[1]; experiment wp071,−0.4227
same,logFC AAK1,"[4]; AAK1 (Q2M218-1), experiment wp071, down",−3.044
same,logFC AAK1,"[4]; AAK1, accession Q2M218-1, experiment wp071, direction of change down",−3.044
same,logFC FASTKD2 (Q9NYY8),[2]; Experiment wp071,−0.4341
CNC(=O)c1ccccc1Nc1cc(Nc2ccc(N3CCN(CCOCCOCCNC(=O)CNc4cccc5c4C(=O)N(C4CCC(=O)NC4=O)C5=O)CC3)cc2OC)ncc1C(F)(F)F (stereo not shown) [MFH.5.103.1],logFC ALDH18A1,[1]; experiment wp076,−0.4191
same,logFC WEE1 (P30291-1),[5]; experiment wp076,−0.9694
"Cc1ncsc1-c1ccc([C@H](C)NC(=O)[C@@H]2C[C@@H](O)CN2C(=O)[C@@H](NC(=O)CCCCCN2CCN(c3ccc(Nc4ncc5scc(-c6cccc(NS(C)(=O)=O)c6)c5n4)cc3)CC2)C(C)(C)C)cc1 [RSS0680, (2S,4R)-1-((S)-3,3-Dimethyl-2-(6-(4-(4-((7-(3-(methylsulfonamido)phenyl)thieno[3,2-d]pyrimidin-2-yl)amino)phenyl)piperazin-1-yl)hexanamido)butanoyl)-4-hydroxy-N—((S)-1-(4-(4-methylthiazol-5yl)phenyl)ethyl)pyrrolidine-2-carboxamide]",logFC AAK1,"[4]; AAK1 (Q2M218-1), experiment wp080, down",−1.392
same,logFC AAK1,"[4]; AAK1 (Q2M218-1), experiment wp117, down",−1.05
same,logFC AAK1,"[4]; AAK1, accession Q2M218-1, experiment wp080, direction of change down",−1.392
same,logFC AAK1,"[4]; AAK1, accession Q2M218-1, experiment wp117, direction of change down",−1.05
same,logFC of WEE1,[5]; experiment wp080,−2.359
same,logFC of WEE1,[5]; experiment wp117,−1.85
same,logFC WEE1 (P30291-1),[5]; experiment wp080,−2.359
same,logFC WEE1 (P30291-1),[5]; experiment wp117,−1.85
same,logFC STK35,"[6]; Accession Q8TDR2, experiment wp117, direction down",−0.3937
same,logFC STK35,"[6]; STK35 (Q8TDR2), experiment wp117",−0.3937
same,logFC CDK4 (P11802),[3]; experiment wp080,−1.724
same,logFC CDK4 (P11802),[3]; experiment wp117,−1.679
same,logFC CDK6,[7]; experiment wp080,−2.17
same,logFC CDK6,[7]; experiment wp117,−2.169
same,logFC of CDK6 (Q00534),[7]; Experiment wp080,−2.17
same,logFC of CDK6 (Q00534),[7]; Experiment wp117,−2.169
Cc1ccc(C(=O)Nc2ccc(CN3CCN(CCCOCCOCCOCCNC(=O)COc4cccc5c4C(=O)N(C4CCC(=O)NC4=O)C5=O)CC3)c(C(F)(F)F)c2)cc1C#Cc1cnc2cccnn12 (stereo not shown) [SB1.G.187],logFC ALDH18A1,[1]; experiment wp056,−0.4458
same,logFC FASTKD2 (Q9NYY8),[2]; Experiment wp056,−0.3881
same,logFC CDK6,[7]; experiment wp103,−0.346
same,logFC of CDK6 (Q00534),[7]; Experiment wp103,−0.346
Cn1c(=O)c(-c2c(Cl)cccc2Cl)cc2cnc(Nc3ccc(OCCNC(=O)CCCCCCNC(=O)COc4cccc5c4C(=O)N(C4CCC(=O)NC4=O)C5=O)cc3)nc21 (stereo not shown) [SB1.G.192.1],logFC ALDH18A1,[1]; experiment wp081,−0.39
same,logFC FASTKD2 (Q9NYY8),[2]; Experiment wp081,−0.3577
same,logFC of WEE1,[5]; experiment wp081,−1.764
same,logFC of WEE1,[5]; experiment wp131,−1.647
same,logFC WEE1 (P30291-1),[5]; experiment wp071,−2.367
same,logFC WEE1 (P30291-1),[5]; experiment wp081,−1.764
same,logFC WEE1 (P30291-1),[5]; experiment wp131,−1.647
CC(C)S(=O)(=O)c1ccccc1Nc1nc(Nc2ccc(N3CCN(CCOCCOCCNC(=O)CNc4cccc5c4C(=O)N(C4CCC(=O)NC4=O)C5=O)CC3)cc2)ncc1Cl (stereo not shown) [TL12.186],logFC AAK1,"[4]; AAK1 (Q2M218-1), experiment wp016, down",−1.338
same,logFC AAK1,"[4]; AAK1 (Q2M218-1), experiment wp131, down",−1.52
same,logFC AAK1,"[4]; AAK1 (Q2M218-1), experiment wp137, down",−1.31
same,logFC AAK1,"[4]; AAK1, accession Q2M218-1, experiment wp016, direction of change down",−1.338
same,logFC AAK1,"[4]; AAK1, accession Q2M218-1, experiment wp131, direction of change down",−1.52
same,logFC AAK1,"[4]; AAK1, accession Q2M218-1, experiment wp137, direction of change down",−1.31
same,logFC FASTKD2 (Q9NYY8),[2]; Experiment wp137,−0.3625
same,logFC of WEE1,[5]; experiment wp137,−2.511
same,logFC WEE1 (P30291-1),[5]; experiment wp016,−1.514
same,logFC WEE1 (P30291-1),[5]; experiment wp131,−2.574
same,logFC WEE1 (P30291-1),[5]; experiment wp137,−2.511
same,logFC STK35,"[6]; Accession Q8TDR2, experiment wp131, direction down",−0.4135
same,logFC STK35,"[6]; Accession Q8TDR2, experiment wp137, direction down",−0.4079
same,logFC STK35,"[6]; STK35 (Q8TDR2), experiment wp131",−0.4135
same,logFC STK35,"[6]; STK35 (Q8TDR2), experiment wp137",−0.4079
same,logFC CDK4 (P11802),[3]; experiment wp016,−0.9166
same,logFC CDK4 (P11802),[3]; experiment wp131,−1.186
same,logFC CDK4 (P11802),[3]; experiment wp137,−1.173
same,logFC CDK6,[7]; experiment wp016,−0.5831
same,logFC CDK6,[7]; experiment wp131,−0.9892
same,logFC CDK6,[7]; experiment wp137,−0.8724
same,logFC of CDK6 (Q00534),[7]; Experiment wp016,−0.5831
same,logFC of CDK6 (Q00534),[7]; Experiment wp131,−0.9892
same,logFC of CDK6 (Q00534),[7]; Experiment wp137,−0.8724
C=CCn1c(=O)c2cnc(Nc3ccc(N4CCN(CCCNc5cccc6c5C(=O)N(C5CCC(=O)NC5=O)C6=O)CC4)cc3)nc2n1-c1cccc(C(C)(C)O)n1 (stereo not shown) [ZNL.02.096],logFC ALDH18A1,[1]; experiment wp118,−0.4405
same,logFC FASTKD2 (Q9NYY8),[2]; Experiment wp118,−0.4605
same,logFC of WEE1,[5]; experiment wp081,−1.97
same,logFC of WEE1,"[5]; experiment wp106, 2 hr",−2.525
same,logFC of WEE1,"[5]; experiment wp106, 4 hr",−2.764
same,logFC of WEE1,[5]; experiment wp118,−2.75
same,logFC WEE1 (P30291-1),[5]; experiment wp056,−2.409
same,logFC WEE1 (P30291-1),[5]; experiment wp081,−1.97
same,logFC WEE1 (P30291-1),"[5]; experiment wp106, 2 hr",−2.525
same,logFC WEE1 (P30291-1),"[5]; experiment wp106, 4 hr",−2.764
same,logFC WEE1 (P30291-1),[5]; experiment wp118,−2.75
